Laboratory results reported in ChEMBL document CHEMBL1146187, “Synthesis, molecular modeling studies, and selective inhibitory activity against monoamine oxidase of N,N'-bis[2-oxo-2H-benzopyran]-3-carboxamides” (Bioorg Med Chem Lett, 2006).

Tests used:
[1] = target: T1, Amine oxidase [flavin-containing] A (Bos taurus, UniProt P21398); assay: Inhibition of bovine brain mitochondrial MAOA
T1 sequence (P21398 whole entry): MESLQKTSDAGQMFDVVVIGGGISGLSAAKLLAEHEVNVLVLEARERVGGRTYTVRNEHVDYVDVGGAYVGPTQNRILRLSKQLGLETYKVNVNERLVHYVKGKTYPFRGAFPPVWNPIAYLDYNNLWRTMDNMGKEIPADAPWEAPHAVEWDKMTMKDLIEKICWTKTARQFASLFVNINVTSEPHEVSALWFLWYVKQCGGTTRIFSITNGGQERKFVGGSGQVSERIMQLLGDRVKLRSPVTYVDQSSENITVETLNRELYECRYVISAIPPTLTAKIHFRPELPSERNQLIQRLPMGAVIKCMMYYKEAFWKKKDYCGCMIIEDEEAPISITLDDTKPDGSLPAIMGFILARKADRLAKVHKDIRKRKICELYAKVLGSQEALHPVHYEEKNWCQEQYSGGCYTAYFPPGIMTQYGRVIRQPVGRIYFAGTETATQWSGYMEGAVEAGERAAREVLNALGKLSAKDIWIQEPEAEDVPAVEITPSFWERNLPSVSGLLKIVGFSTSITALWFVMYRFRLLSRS

[2] = target: T2, Amine oxidase [flavin-containing] B (Bos taurus, UniProt P56560); assay: Inhibition of bovine brain mitochondrial MAOB
T2 sequence (P56560 whole entry): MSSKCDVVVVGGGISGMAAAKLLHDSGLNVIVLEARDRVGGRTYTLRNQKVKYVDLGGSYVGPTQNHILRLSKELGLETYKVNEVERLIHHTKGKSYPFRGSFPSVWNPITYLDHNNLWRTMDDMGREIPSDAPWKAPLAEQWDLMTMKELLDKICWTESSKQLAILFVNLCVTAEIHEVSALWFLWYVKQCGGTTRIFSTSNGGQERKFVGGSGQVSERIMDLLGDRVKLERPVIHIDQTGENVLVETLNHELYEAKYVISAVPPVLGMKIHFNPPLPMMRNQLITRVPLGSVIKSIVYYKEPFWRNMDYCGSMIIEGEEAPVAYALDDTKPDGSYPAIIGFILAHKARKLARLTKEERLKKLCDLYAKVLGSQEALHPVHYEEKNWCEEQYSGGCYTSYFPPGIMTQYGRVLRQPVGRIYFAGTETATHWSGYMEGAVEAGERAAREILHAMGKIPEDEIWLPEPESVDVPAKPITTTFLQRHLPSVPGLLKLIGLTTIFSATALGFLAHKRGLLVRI

With `O=C(Nc1ccc(NC(=O)c2cc3ccccc3oc2=O)cc1)c1cc2ccccc2oc1=O` the Ki [1] was 2400 nM and the Ki [2] was 1740 nM.
With `O=C(NCCCCCCNC(=O)c1cc2ccccc2oc1=O)c1cc2ccccc2oc1=O` the Ki [1] was 3.98 nM and the Ki [2] was 1820 nM.
`O=C(Nc1ccccc1NC(=O)c1cc2ccccc2oc1=O)c1cc2ccccc2oc1=O` gave a Ki [1] of 16.2 nM and a Ki [2] of 3020 nM.
In the case of `O=C(NCCCCNC(=O)c1cc2ccccc2oc1=O)c1cc2ccccc2oc1=O`, the Ki [1] is reported as 1 nM and the Ki [2] is reported as 1000 nM.
In the case of `COc1ccc2cc(C(=O)NCCCCNC(=O)c3cc4ccc(OC)cc4oc3=O)c(=O)oc2c1`, the Ki [1] is reported as 170 nM and the Ki [2] is reported as 1410 nM.
Compound `O=C(NCCNC(=O)c1cc2ccccc2oc1=O)c1cc2ccccc2oc1=O` has a Ki [1] of 33.1 nM and a Ki [2] of 6310 nM.
Work on `O=C(N[C@H]1CCCC[C@@H]1NC(=O)c1cc2ccccc2oc1=O)c1cc2ccccc2oc1=O` yielded a Ki [1] of 182 nM and a Ki [2] of 1410 nM.
